How the values were obtained:
E. coli bacteria = assay: Bacterial proliferation inhibition rate measurement (Method 1); type: cell-based; settings: 0.04 g in 20 mL nutrient broth inoculated with 3,000±300 CFU/mL, 37° C., 24 hours, absorbance at 600 nm
Method: After 0.04 g of the antibacterial composition is added to 20 mL of a nutrient broth culture solution inoculated with 3,000±300CFU/mL of bacterial strain, from the culture solution of an experimental group in which the resulting mixture is incubated at 37° C. in a shaking incubator for 24 hours, the absorbance at a wavelength of 600 nm is measured using a UV/Vis spectrophotometer, • the antibacterial composition is not added to 20 mL of a nutrient broth culture solution inoculated with 3,000±300CFU/mL of bacterial strain, from the culture solution of a control in which the nutrient broth culture solution is incubated at 37° C. for 24 hours, the absorbance at a wavelength of 600 nm is measured using a UV/Vis spectrophotometer, and • from the absorbance of the experimental group and the absorbance of the control group, the bacterial proliferation inhibition rate (%) of the test bacteria is calculated using the following Equation 1.
In the present experiment, the bacterial proliferation inhibition rate was measured according to the following Method 1. In this case, E. coli bacteria were used.

[1] = Primary thermal decomposition measurement (thermogravimetric analyzer); type: physicochemical; settings: N2 atmospheric environment, extrapolated onset of first mass reduction section
Description: The primary thermal decomposition temperature may be defined as an extrapolated intersection point between a starting mass reference line and the tangent line of the maximum slope point in the first mass reduction section of a mass loss curve measured by a thermogravimetric analyzer in an N2 atmospheric environment.
A thermogravimetric analyzer (TGA2 manufactured by Mettler Toledo) was used in order to perform an experiment on the primary thermal decomposition temperature of the antibacterial compositions of Examples 1 to 13 and Comparative Example 1.
In the present experiment, the primary thermal decomposition temperature may be defined as an extrapolated intersection point between a starting mass reference line and the tangent line of the maximum slope point in the first mass reduction section of a mass loss curve measured by a thermogravimetric analyzer in an N2 atmospheric environment. In the present disclosure, it was determined that when the primary thermal decomposition temperature of the antibacterial composition has a value higher than the primary thermal decomposition temperature of the material before anion substitution, the heat resistance has increased.

For `C=Cc1ccc(C[N+](C)(C)CCCCCCCCCCCC)cc1.[Cl-]` [Comparative Example 1], the “Bacterial proliferation inhibition rate” value (E. coli bacteria) was 96.3%.

With `C=Cc1ccc(C[N+](C)(C)CCCCCCCCCCCC)cc1.O=S(=O)([O-])C(F)(F)F` [Example 1] the “Primary thermal decomposition temperature” value [1] was 369 °C.

From patent publication US20250176542A1, “Antibacterial Composition” (LG Chem, Ltd., priority 2022, published 2025)
